From ChEMBL document CHEMBL3585240, “Synthesis and biological evaluation of caracasine acid derivatives” (Bioorg Med Chem, 2015)
Active and inactive are the calls of the source. The rule behind the calls is not given here.

Tests used:
[1] = system: Bacillus cereus; assay: Antibacterial activity against Bacillus cereus ATCC 14579 assessed as growth inhibition at 15 ug after 24 hrs by disc agar diffusion method; type: functional; conditions: ATCC 14579, 24 h, read-out: DIZ
[2] = system: Staphylococcus aureus; assay: Antibacterial activity against Staphylococcus aureus ATCC 25923 assessed as growth inhibition at 15 ug after 24 hrs by disc agar diffusion method; type: functional; conditions: ATCC 25923, 24 h, read-out: DIZ
[3] = system: Escherichia coli; assay: Antibacterial activity against Escherichia coli ATCC 35218 assessed as growth inhibition at 15 ug after 24 hrs by disc agar diffusion method; type: functional; conditions: ATCC 35218, 24 h, read-out: DIZ
[4] = system: Pseudomonas aeruginosa; assay: Antibacterial activity against Pseudomonas aeruginosa ATCC 27853 assessed as growth inhibition at 15 ug after 24 hrs by disc agar diffusion method; type: functional; conditions: ATCC 27853, 24 h, read-out: DIZ
[5] = system: Bacillus cereus; assay: Antibacterial activity against Bacillus cereus ATCC 14579 assessed as growth inhibition at 20 ug after 24 hrs by disc agar diffusion method in presence of sulbactam; type: functional, organism-based
[6] = system: Staphylococcus aureus; assay: Antibacterial activity against Staphylococcus aureus ATCC 25923 assessed as growth inhibition at 20 ug after 24 hrs by disc agar diffusion method in presence of sulbactam; type: functional; conditions: ATCC 25923, 24 h, read-out: DIZ
[7] = system: Escherichia coli; assay: Antibacterial activity against Escherichia coli ATCC 35218 assessed as growth inhibition at 20 ug after 24 hrs by disc agar diffusion method in presence of sulbactam; type: functional, organism-based
[8] = system: Pseudomonas aeruginosa; assay: Antibacterial activity against Pseudomonas aeruginosa ATCC 27853 assessed as growth inhibition at 20 ug after 24 hrs by disc agar diffusion method in presence of sulbactam; type: functional; conditions: ATCC 27853, 24 h, read-out: DIZ
[9] = system: Bacillus cereus; assay: Antibacterial activity against Bacillus cereus ATCC 14579 assessed as growth inhibition at 5 ug after 24 hrs by disc agar diffusion method; type: functional; conditions: ATCC 14579, 24 h, read-out: DIZ
[10] = system: Staphylococcus aureus; assay: Antibacterial activity against Staphylococcus aureus ATCC 25923 assessed as growth inhibition at 5 ug after 24 hrs by disc agar diffusion method; type: functional; conditions: ATCC 25923, 24 h, read-out: DIZ
[11] = system: Escherichia coli; assay: Antibacterial activity against Escherichia coli ATCC 35218 assessed as growth inhibition at 5 ug after 24 hrs by disc agar diffusion method; type: functional; conditions: ATCC 35218, 24 h, read-out: DIZ
[12] = system: Pseudomonas aeruginosa; assay: Antibacterial activity against Pseudomonas aeruginosa ATCC 27853 assessed as growth inhibition at 5 ug after 24 hrs by disc agar diffusion method; type: functional; conditions: ATCC 27853, 24 h, read-out: DIZ
[13] = system: PC-3; assay: Cytotoxicity against human PC3 cells assessed as growth inhibition after 72 hrs by MTT assay; type: functional, cell-based; conditions: PC-3, 72 h
[14] = system: MCF7; assay: Cytotoxicity against human MCF7 cells assessed as growth inhibition after 72 hrs by MTT assay; type: functional, cell-based; conditions: MCF7, 72 h
[15] = system: Leishmania mexicana; assay: Antileishmanial activity against promastigote stage of Leishmania mexicana Bel21 assessed as growth inhibition after 48 hrs by MTT assay; type: functional, organism-based; conditions: Bel21, 48 h
[16] = system: Trypanosoma cruzi; assay: Antitrypanosomal activity against epimastigote stage of Trypanosoma cruzi CL Brener assessed as growth inhibition after 5 days by MTT assay; type: functional; conditions: 120 h
[17] = Cytotoxicity against human skin fibroblasts assessed as growth inhibition after 72 hrs by MTT assay; conditions: Skin fibroblast
[18] = system: PC-3; assay: Selectivity index, ratio of IC50 for human skin fibroblasts to IC50 for human PC3 cells
[19] = system: MCF7; assay: Selectivity index, ratio of IC50 for human skin fibroblasts to IC50 for human MCF7 cells
[20] = Selectivity index, ratio of IC50 for human skin fibroblasts to IC50 for promastigote stage of Leishmania mexicana Bel21
[21] = Selectivity index, ratio of IC50 for human skin fibroblasts to IC50 for epimastigote stage of Trypanosoma cruzi CL Brener
[22] = system: Bacillus cereus; assay: Antibacterial activity against Bacillus cereus ATCC 14579 assessed as growth inhibition at 2 mg/ml after 24 hrs by disc agar diffusion method; type: functional
[23] = system: Staphylococcus aureus; assay: Antibacterial activity against Staphylococcus aureus ATCC 25923 assessed as growth inhibition at 2 mg/ml after 24 hrs by disc agar diffusion method; type: functional; conditions: ATCC 25923, 24 h, read-out: DIZ
[24] = system: Escherichia coli; assay: Antibacterial activity against Escherichia coli ATCC 35218 assessed as growth inhibition at 2 mg/ml after 24 hrs by disc agar diffusion method; type: functional
[25] = system: Pseudomonas aeruginosa; assay: Antibacterial activity against Pseudomonas aeruginosa ATCC 27853 assessed as growth inhibition at 2 mg/ml after 24 hrs by disc agar diffusion method; type: functional
[26] = system: Bacillus cereus; assay: Antibacterial activity against Bacillus cereus ATCC 14579 assessed as growth inhibition at 30 ug after 24 hrs by disc agar diffusion method; type: functional; conditions: ATCC 14579, 24 h, read-out: DIZ
[27] = system: Staphylococcus aureus; assay: Antibacterial activity against Staphylococcus aureus ATCC 25923 assessed as growth inhibition at 30 ug after 24 hrs by disc agar diffusion method; type: functional; conditions: ATCC 25923, 24 h, read-out: DIZ
[28] = system: Escherichia coli; assay: Antibacterial activity against Escherichia coli ATCC 35218 assessed as growth inhibition at 30 ug after 24 hrs by disc agar diffusion method; type: functional; conditions: ATCC 35218, 24 h, read-out: DIZ
[29] = system: Pseudomonas aeruginosa; assay: Antibacterial activity against Pseudomonas aeruginosa ATCC 27853 assessed as growth inhibition at 30 ug after 24 hrs by disc agar diffusion method; type: functional; conditions: ATCC 27853, 24 h, read-out: DIZ

| IC50 [16] [µM] | SMILES | IC50 [13] [µM] | IC50 [14] [µM] | IC50 [15] [µM] | IC50 [17] [µM] | Ratio IC50 [18] | Ratio IC50 [19] | Ratio IC50 [20] | Ratio IC50 [21] | zone of inhibition at 2000 µg/mL [23] [mm] | growth inhibition (GI) [24] | further results |
| --- | --- | --- | --- | --- | --- | --- | --- | --- | --- | --- | --- | --- |
| – | CC[C@H]1OC(=O)C[C@@H](O)[C@H](C)[C@@H](O[C@@H]2O[C@H](C)[C@@H](O)[C@H](N(C)C)[C@H]2O)[C@@H](CCN2C[C@H](C)C[C@H](C)C2)C[C@@H](C)C(=O)/C=C/C(C)=C/[C@@H]1CO[C@@H]1O[C@H](C)[C@@H](O)[C@@H](OC)[C@H]1OC [TILMICOSIN] | – | – | – | – | – | – | – | – | – | – | zone of inhibition at 15 µg/disc [1]: 32 mm; zone of inhibition at 15 µg/disc [2]: 23 mm; zone of inhibition at 15 µg/disc [3]: 18 mm; zone of inhibition at 15 µg/disc [4]: 18 mm |
| – | CC1(C)S[C@@H]2[C@H](NC(=O)[C@H](N)c3ccccc3)C(=O)N2[C@H]1C(=O)O [AMPICILLIN] | – | – | – | – | – | – | – | – | – | – | growth inhibition (GI) [5]: inactive; zone of inhibition at 20 µg/disc [6]: 18 mm; growth inhibition (GI) [7]: inactive; zone of inhibition at 20 µg/disc [8]: 12 mm |
| – | CC1COc2c(N3CCN(C)CC3)c(F)cc3c(=O)c(C(=O)O)cn1c23 (configuration not stated) [OFLOXACIN] | – | – | – | – | – | – | – | – | – | – | zone of inhibition at 5 µg/disc [9]: 28 mm; zone of inhibition at 5 µg/disc [10]: 25 mm; zone of inhibition at 5 µg/disc [11]: 24 mm; zone of inhibition at 5 µg/disc [12]: 15 mm |
| 3.1 | C=C1C(=O)[C@@]23CC[C@H](C(=C)C)[C@@](C)(CCC(=O)OCCC)[C@@H]2CC[C@H]1C3 | 4.2 | 6.6 | 1.5 | 6.2 | 1.5 | 0.9 | 4.1 | 2 | 12 | inactive | zone of inhibition at 2000 µg/mL ([22]; ATCC 14579, 24 h, read-out: DIZ): 20 mm; growth inhibition (GI) [25]: inactive |
| 4.1 | C=C1C(=O)[C@@]23CC[C@H](C(=C)C)[C@@](C)(CCC(=O)OC(C)C)[C@@H]2CC[C@H]1C3 | 5.4 | 5.4 | 1.5 | 7.5 | 1.4 | 1.4 | 5 | 1.8 | 15 | inactive | growth inhibition (GI) [22]: inactive; zone of inhibition at 2000 µg/mL ([25]; ATCC 27853, 24 h, read-out: DIZ): 15 mm |
| – | NCC[C@H](O)C(=O)N[C@@H]1C[C@H](N)[C@@H](O[C@H]2O[C@H](CN)[C@@H](O)[C@H](O)[C@H]2O)[C@H](O)[C@H]1O[C@H]1O[C@H](CO)[C@@H](O)[C@H](N)[C@H]1O [AMIKACIN] | – | – | – | – | – | – | – | – | – | – | zone of inhibition at 30 µg/disc [26]: 32 mm; zone of inhibition at 30 µg/disc [27]: 16 mm; zone of inhibition at 30 µg/disc [28]: 22 mm; zone of inhibition at 30 µg/disc [29]: 16 mm |
